23 compounds from US8916593B2, “Alkoxy-substituted 2-aminopyridines as ALK inhibitors” (Pfizer Inc., priority 2010, dated 2014) can be followed below.

Molecules are shown by their SMILES. Counter-ions that a name gives are not always drawn.

The target of test [1] is EML4-ALK wt v1 in NIH-3T3 cells (Homo sapiens, UniProt Q9UM73).
Test [2] has as its target T1, human recombinant wild-type ALK kinase domain (amino acids 1093-1411) (Homo sapiens, UniProt Q9UM73).
T1 construct: ALK kinase domain (amino acids 1093-1411); made in house
Briefly: ALK enzyme assay 2 (microfluidic mobility shift assay).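 Further: kinase reaction run 1 h at room temperature, conversion quantified by electrophoretic separation of fluorescent peptide substrate from phosphorylated product, about 15-20% turnover without inhibitor.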 Type of test: biochemical.
Procedure: The reactions were incubated for 1 h at room temperature, stopped by the addition of 0.1 M EDTA, pH 8, and the extent of reactions (˜15-20% conversion with no inhibitor) was determined after electrophoretic separation of the fluorescently labeled peptide substrate and phosphorylated product on an LabChip EZ Reader II (Caliper Life Sciences, Hopkinton, Mass.).

Test [3] deals with T2, ALK enzyme (Homo sapiens, UniProt Q9UM73).
T2 construct: purchased Invitrogen PV4185
As to the kind of experiment: ALK enzymatic activity assay 1. In kind it is biochemical. The method, then:
ALK Enzymatic Activity Assay 1
Compounds were added at a final concentration of 1% DMSO in half-log dilutions, starting at 20 μM final concentration. The reactions were initiated by the addition of 10 μL of peptide/ATP mix to 10 μL enzyme and 2 μL of compound in 384-well plate. […] On the 12-sipper chip, substrate and phosphorylated product were separated with an upstream voltage of −2650 V, a downstream voltage of −500 V, and a screen pressure of −1.5 psi. The relative peak heights of substrate and product were measured and ratios were calculated using HTS Well Analyzer Software version 5.2.43 from the manufacturer.

Test [4] has as its target T3, cMet enzyme (Homo sapiens, UniProt P08581).
T3 construct: RTC Lot#032006
Briefly: cMet enzymatic activity assay. In kind it is biochemical. To be noted: purified cMet enzyme 7.5 nM, ATP 17 μM (Km). The method, then: cMet Enzymatic Activity Assay
Compounds were added at a final concentration of 2% DMSO in half-log dilutions, starting at 20 μM final concentration. The reactions were initiated by addition of 10 μL of peptide/ATP mix to 10 μL enzyme and 5 μL of compound in 384-well plate. […] Substrate and phosphorylated product were separated with an upstream voltage of −2650 V, a downstream voltage of −500V, and a screen pressure of −1.5 psi. The relative peak heights of substrate and product were measured and ratios were calculated using HTS Well Analyzer Software version 5.2.43 from the manufacturer.

T3 sequence (P08581 25-1390): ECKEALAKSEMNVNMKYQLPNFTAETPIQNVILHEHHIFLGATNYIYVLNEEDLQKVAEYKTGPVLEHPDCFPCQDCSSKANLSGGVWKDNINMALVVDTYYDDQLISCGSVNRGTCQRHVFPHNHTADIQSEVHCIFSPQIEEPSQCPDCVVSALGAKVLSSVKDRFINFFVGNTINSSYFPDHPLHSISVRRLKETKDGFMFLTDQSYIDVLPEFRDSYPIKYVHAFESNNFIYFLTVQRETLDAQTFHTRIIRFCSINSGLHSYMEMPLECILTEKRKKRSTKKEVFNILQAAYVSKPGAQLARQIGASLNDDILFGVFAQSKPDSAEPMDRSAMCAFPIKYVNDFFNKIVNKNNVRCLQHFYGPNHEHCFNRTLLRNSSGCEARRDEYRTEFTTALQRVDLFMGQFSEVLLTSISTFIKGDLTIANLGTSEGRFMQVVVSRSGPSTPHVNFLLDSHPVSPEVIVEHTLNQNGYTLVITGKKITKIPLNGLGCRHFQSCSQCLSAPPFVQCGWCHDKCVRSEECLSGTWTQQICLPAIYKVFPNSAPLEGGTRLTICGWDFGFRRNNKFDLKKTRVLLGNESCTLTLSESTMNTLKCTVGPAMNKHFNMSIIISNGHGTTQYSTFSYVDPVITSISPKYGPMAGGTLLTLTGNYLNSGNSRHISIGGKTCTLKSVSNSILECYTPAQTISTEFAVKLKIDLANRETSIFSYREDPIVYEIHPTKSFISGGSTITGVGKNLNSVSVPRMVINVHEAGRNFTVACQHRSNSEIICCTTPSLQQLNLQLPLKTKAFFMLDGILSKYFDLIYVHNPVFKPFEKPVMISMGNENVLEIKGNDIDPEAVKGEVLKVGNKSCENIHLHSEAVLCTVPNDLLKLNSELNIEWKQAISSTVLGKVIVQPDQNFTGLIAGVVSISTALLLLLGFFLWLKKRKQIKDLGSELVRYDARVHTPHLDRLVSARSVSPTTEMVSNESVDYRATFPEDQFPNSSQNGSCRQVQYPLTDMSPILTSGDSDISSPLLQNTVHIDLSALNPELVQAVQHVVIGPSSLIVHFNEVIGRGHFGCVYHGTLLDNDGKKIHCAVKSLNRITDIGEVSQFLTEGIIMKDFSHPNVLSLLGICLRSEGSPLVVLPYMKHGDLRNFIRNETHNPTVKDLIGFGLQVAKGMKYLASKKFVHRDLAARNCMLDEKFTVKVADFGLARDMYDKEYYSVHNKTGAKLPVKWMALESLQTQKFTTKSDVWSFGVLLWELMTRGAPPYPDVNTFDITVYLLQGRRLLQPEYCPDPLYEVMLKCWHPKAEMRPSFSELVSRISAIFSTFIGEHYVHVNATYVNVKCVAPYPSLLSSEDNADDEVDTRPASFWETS
Sequence of EML4-ALK wt v1 in NIH-3T3 cells (Q9UM73 with tags, fused parts or gaps): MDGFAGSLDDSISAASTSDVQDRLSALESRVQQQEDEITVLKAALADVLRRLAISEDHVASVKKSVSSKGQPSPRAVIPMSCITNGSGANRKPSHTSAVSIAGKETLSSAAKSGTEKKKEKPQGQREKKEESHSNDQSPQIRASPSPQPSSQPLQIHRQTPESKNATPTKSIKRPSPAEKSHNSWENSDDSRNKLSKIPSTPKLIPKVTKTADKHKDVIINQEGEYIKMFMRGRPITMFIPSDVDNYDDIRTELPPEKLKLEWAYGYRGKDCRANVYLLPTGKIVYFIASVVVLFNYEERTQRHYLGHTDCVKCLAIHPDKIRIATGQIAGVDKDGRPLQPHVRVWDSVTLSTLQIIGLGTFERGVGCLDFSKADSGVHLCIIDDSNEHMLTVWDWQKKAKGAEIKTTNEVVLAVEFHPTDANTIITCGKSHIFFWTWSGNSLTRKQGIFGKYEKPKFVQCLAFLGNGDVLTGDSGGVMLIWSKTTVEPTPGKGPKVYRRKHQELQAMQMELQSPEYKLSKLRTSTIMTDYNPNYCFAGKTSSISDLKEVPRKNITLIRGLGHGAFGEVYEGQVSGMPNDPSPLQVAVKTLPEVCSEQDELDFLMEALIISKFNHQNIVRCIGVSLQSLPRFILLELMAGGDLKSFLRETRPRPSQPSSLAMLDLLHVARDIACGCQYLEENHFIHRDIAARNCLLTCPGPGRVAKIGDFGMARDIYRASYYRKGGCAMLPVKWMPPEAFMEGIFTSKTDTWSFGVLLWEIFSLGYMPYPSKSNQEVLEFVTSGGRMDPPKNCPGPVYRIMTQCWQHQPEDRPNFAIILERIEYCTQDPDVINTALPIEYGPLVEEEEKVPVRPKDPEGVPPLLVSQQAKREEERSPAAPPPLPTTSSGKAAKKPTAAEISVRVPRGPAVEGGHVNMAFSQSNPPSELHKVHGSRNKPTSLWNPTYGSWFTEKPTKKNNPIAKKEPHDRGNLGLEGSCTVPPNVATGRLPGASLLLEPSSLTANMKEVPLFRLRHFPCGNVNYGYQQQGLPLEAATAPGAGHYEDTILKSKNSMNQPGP
T2 sequence (Q9UM73 19-1620): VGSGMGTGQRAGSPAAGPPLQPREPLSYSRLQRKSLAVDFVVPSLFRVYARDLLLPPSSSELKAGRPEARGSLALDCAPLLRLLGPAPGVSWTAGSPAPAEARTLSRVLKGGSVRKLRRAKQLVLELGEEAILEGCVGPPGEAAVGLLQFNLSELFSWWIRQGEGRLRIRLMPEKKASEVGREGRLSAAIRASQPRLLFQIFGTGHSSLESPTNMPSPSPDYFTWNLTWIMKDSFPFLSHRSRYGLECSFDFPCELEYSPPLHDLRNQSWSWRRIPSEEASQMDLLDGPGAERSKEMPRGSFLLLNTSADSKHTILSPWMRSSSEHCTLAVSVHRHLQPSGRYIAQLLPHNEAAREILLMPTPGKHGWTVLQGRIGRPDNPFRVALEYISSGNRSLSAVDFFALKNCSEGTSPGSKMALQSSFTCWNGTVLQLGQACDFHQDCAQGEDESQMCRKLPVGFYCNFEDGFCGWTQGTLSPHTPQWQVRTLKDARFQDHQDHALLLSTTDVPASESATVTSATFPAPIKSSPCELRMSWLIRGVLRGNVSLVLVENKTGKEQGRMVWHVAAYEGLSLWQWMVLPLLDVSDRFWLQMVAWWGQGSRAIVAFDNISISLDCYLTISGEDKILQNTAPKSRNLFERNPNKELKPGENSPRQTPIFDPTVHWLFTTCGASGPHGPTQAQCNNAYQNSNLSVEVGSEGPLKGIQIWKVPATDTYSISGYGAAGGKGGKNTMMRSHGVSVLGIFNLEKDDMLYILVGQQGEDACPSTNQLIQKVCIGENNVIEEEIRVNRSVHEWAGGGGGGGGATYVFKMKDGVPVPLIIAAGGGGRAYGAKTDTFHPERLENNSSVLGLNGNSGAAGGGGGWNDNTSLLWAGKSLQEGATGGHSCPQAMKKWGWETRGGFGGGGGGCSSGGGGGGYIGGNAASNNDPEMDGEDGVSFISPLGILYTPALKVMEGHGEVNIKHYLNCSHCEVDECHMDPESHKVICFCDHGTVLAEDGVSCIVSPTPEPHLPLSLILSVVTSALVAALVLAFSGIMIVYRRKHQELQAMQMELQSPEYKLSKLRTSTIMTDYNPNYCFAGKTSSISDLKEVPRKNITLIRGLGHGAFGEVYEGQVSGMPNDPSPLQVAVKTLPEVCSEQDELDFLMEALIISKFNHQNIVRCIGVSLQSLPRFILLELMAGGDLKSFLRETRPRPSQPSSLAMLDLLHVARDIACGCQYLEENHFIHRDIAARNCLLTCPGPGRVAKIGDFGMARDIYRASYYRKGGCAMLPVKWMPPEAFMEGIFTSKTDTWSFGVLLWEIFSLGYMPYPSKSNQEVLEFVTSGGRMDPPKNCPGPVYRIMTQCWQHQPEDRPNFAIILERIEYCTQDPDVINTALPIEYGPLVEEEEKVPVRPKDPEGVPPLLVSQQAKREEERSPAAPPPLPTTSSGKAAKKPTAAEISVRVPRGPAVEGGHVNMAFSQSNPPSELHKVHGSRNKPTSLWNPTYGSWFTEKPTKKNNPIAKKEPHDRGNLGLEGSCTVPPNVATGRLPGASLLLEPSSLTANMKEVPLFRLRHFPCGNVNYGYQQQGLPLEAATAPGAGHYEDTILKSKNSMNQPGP
T1 sequence (Q9UM73 1093-1411): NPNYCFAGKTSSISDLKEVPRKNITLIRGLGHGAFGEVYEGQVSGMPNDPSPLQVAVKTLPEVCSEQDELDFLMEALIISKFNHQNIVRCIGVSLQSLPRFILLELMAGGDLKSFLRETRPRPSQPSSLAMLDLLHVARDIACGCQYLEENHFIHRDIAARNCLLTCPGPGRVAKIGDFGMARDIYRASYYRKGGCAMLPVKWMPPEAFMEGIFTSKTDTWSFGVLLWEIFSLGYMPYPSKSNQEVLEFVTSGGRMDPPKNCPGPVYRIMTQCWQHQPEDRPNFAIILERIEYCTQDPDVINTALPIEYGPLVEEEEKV

The term IC50 denotes the concentration at which inhibition is half-maximal. One may read the Ki as a measure of affinity in units of concentration, obtained from inhibition or displacement. With `CC(Oc1cc(-c2ccnn2C)cnc1N)c1cc(F)ccc1C#N` (single isomer, unassigned) [Example 44], the IC50 was determined as 411 nM in test [1], 57 nM in test [3] and 6480 nM in test [4]. In test [2], the Ki was 6.9 nM.
On the same counts, the results for `C=Cn1nnc(C)c1-c1cnc(N)c(OC(C)c2cc(F)ccc2OC)c1` (stereo not drawn) [Example 1, 3-[1-(5-Fluoro-2-methoxyphenyl)ethoxy]-5-(4-methyl-1-vinyl-1H-1,2,3-triazol-5-yl)pyridin-2-amine] are 144 nM, 61.4 nM, more than 18800 nM and 2.9 nM.
On the same counts, the results for `COc1ccc(F)cc1C(C)Oc1cc(-c2cnnn2CCO)cnc1N` (stereo not drawn) [Example 2, 2-(5-{6-amino-5-[1-(5-fluoro-2-methoxyphenyl)ethoxy]-pyridin-3-yl}-1H-1,2,3-triazol-1-yl)ethanol] are more than 1000 nM, 135 nM, more than 20000 nM and 220 nM.
Regarding `COc1ccc(F)cc1C(C)Oc1cc(-c2cncc(S(C)(=O)=O)c2)cnc1N` (stereo not drawn) [Example 4, 5-[1-(5-fluoro-2-methoxyphenyl)ethoxy]-5′-(methylsulfonyl)-3,3′-bipyridin-6-amine], the values for the IC50 in test [1], in test [3] and in test [4] were 72.4 nM, 51.7 nM and 7610 nM, respectively. For the same compound, the inhibition constant (Ki) in test [2] worked out at 1.93 nM.
With `COc1ccc(F)cc1C(C)Oc1cc(-c2cnc(N)nc2C)cnc1N` (stereo not drawn) [Example 5, 5-{6-amino-5-[1-(5-fluoro-2-methoxyphenyl)ethoxy]-pyridin-3-yl}-4-methylpyrimidin-2-amine], the IC50 turned out to be 48 nM in test [3] and 13000 nM in test [4].
Regarding `COc1ccc(F)cc1C(C)Oc1cc(-c2c(C)n[nH]c2C)cnc1N` (stereo not drawn) [Example 6, 5-(3,5-dimethyl-1H-pyrazol-4-yl)-3-[1-(5-fluoro-2-methoxyphenyl)ethoxy]-pyridin-2-amine], the Ki in test [2] turned out to be 0.62 nM. Further, the IC50 in test [3] was 33.6 nM; in test [4] it was 6740 nM.
On to `COc1ccc(F)cc1C(C)Oc1cc(-c2c(C)nn(C)c2C)cnc1N` (stereo not drawn) [Example 7, 3-[1-(5-fluoro-2-methoxyphenyl)ethoxy]-5-(1,3,5-trimethyl-1H-pyrazol-4-yl)pyridin-2-amine], for which the IC50 in test [1] was found to be 33 nM; in test [3] it was 44.9 nM; in test [4], 10200 nM. Also, the Ki in test [2] is 0.536 nM.
For the compound `COc1ccc(F)cc1C(C)Oc1cc(-c2cccnc2O)cnc1N` (stereo not drawn) [Example 8, 6′-amino-5′-[1-(5-fluoro-2-methoxyphenyl)ethoxy]-3,3′-bipyridin-2-ol], the values for the IC50 in test [3] and in test [4] were 98.2 nM and 17400 nM, respectively.
In the case of `COc1ccc(F)cc1C(C)Oc1cc(-c2c(C)nnn2C)cnc1N` (stereo not drawn) [Example 10, 5-(1,4-dimethyl-1H-1,2,3-triazol-5-yl)-3-[1-(5-fluoro-2-methoxyphenyl)ethoxy]-pyridin-2-amine], the half-inhibitory concentration (IC50) in test [1] was 361 nM; in test [3] it was 86 nM; in test [4], more than 20000 nM.
Take `COc1ccc(F)cc1C(C)Oc1cc(-c2ccnn2CCO)cnc1N` (stereo not drawn) [Example 11, 2-(5-{6-amino-5-[1-(5-fluoro-2-methoxyphenyl)ethoxy]-pyridin-3-yl}-1H-pyrazol-1-yl)ethanol]: the IC50 in test [1] was 245 nM; in test [3], 52.2 nM; in test [4], more than 20000 nM. Further, the Ki in test [2] was 6.3 nM.
For `COc1ccc(F)cc1C(C)Oc1cc(-c2cnn(C)c2CO)cnc1N` (stereo not drawn) [Example 12, (4-{6-amino-5-[1-(5-fluoro-2-methoxyphenyl)ethoxy]-pyridin-3-yl}-1-methyl-1H-pyrazol-5-yl)methanol], the results for the IC50 in test [1], in test [3] and in test [4] were 194 nM, 70.6 nM and 8420 nM, respectively. The Ki in test [2] came to 2.1 nM.
On the same counts, the results for `COc1ccc(F)cc1C(C)Oc1cc(-c2ncsc2CO)cnc1N` (stereo not drawn) [Example 13, (4-{6-amino-5-[1-(5-fluoro-2-methoxyphenyl)ethoxy]-pyridin-3-yl}-1,3-thiazol-5-yl)methanol] are 591 nM, 132 nM, more than 20000 nM and 5.5 nM.
As to `COc1ccc(F)cc1C(C)Oc1cc(-c2scnc2CO)cnc1N` (stereo not drawn) [Example 14, (5-{6-amino-5-[1-(5-fluoro-2-methoxyphenyl)ethoxy]-pyridin-3-yl}-1,3-thiazol-4-yl)methanol], the IC50 in test [3] amounted to 74.8 nM; in test [4], 8290 nM.
Consider `COc1ccc(F)cc1C(C)Oc1cc(-c2cccn(C)c2=O)cnc1N` (stereo not drawn) [Example 15, 6′-amino-5′-[1-(5-fluoro-2-methoxyphenyl)ethoxy]-1-methyl-3,3′-bipyridin-2(1H)-one], for which the values for the IC50 in test [1], in test [3] and in test [4] were 904 nM, 177 nM and more than 20000 nM, respectively. Besides, in test [2], the inhibitory constant (Ki) was 16 nM.
`COc1ccc(F)cc1[C@@H](C)Oc1cc(-c2cncn2C)cnc1N` [Example 22, 3-[(1R)-1-(5-fluoro-2-methoxyphenyl)-ethoxy]-5-(1-methyl-1H-imidazol-5-yl)pyridin-2-amine]: the IC50 came out at 47.5 nM in test [1], 38 nM in test [3] and 3680 nM in test [4].
On to `COc1ccc(F)cc1[C@@H](C)Oc1cc(-c2c(C)ncn2C)cnc1N` [Example 25, 5-(1,4-dimethyl-1H-imidazol-5-yl)-3-[(1R)-1-(5-fluoro-2-methoxyphenyl)-ethoxy]pyridin-2-amine], for which the results for the half-maximal inhibitory concentration (IC50) in test [3] and in test [4] were 38.2 nM and 13200 nM, respectively.
Regarding `C[C@@H](Oc1cc(-c2scnc2CO)cnc1N)c1cc(F)ccc1-n1nccn1` [Example 28], the half-inhibitory concentration (IC50) in test [3] was 63.5 nM; in test [4], 13000 nM.
For the compound `C[C@@H](Oc1cc(-c2c(F)cnn2C)cnc1N)c1cc(F)ccc1-n1nccn1` [Example 29], the 50% inhibitory concentration (IC50) stood at 151 nM in test [1], 30 nM in test [3] and 7480 nM in test [4].
`Cc1n[nH]cc1-c1cnc(N)c(OC(C)c2cc(F)ccc2-n2nccn2)c1` (stereo not drawn) [Example 39, 3-{1-[5-fluoro-2-(2H-1,2,3-triazol-2-yl)phenyl]-ethoxy}-5-(3-methyl-1H-pyrazol-4-yl)pyridin-2-amine] registered an IC50 in test [4] of 4500 nM.
As to `Cc1n[nH]cc1-c1cnc(N)c(O[C@H](C)c2cc(F)ccc2C#N)c1` [Example 40, 2-[(1R)-1-{[2-amino-5-(3-methyl-1H-pyrazol-4-yl)pyridin-3-yl]oxy}ethyl]-4-fluorobenzonitrile], in test [4], the IC50 is 1350 nM.
Turning to `COc1ccc(F)cc1C(C)Oc1cc(-c2ccnn2C)cnc1N` (stereo not drawn) [Example 43, 3-[1-(5-fluoro-2-methoxyphenyl)-ethoxy]-5-(1-methyl-1H-pyrazol-5-yl)pyridin-2-amine monohydrochloride], the Ki in test [2] is less than 0.249 nM. The half-maximal inhibitory concentration (IC50) in test [3] turned out to be 34.9 nM; in test [4] it was 5090 nM.
In the case of `COc1ncccc1-c1cnc(N)c(OC(C)c2cc(F)ccc2-n2nccn2)c1` (stereo not drawn) [Example 46, 5-{1-[5-fluoro-2-(2H-1,2,3-triazol-2-yl)phenyl]-ethoxy}-2′-methoxy-3,3′-bipyridin-6-amine], half-maximal inhibition in test [4] (IC50) required 6850 nM.
As for `Cc1n[nH]c(C)c1-c1cnc(N)c(OC(C)c2cc(F)ccc2-n2nccn2)c1` (stereo not drawn) [Example 49, 5-(3,5-dimethyl-1H-pyrazol-4-yl)-3-{1-[5-fluoro-2-(2H-1,2,3-triazol-2-yl)phenyl]-ethoxy}pyridin-2-amine], the values for the IC50 in test [3] and in test [4] were 114 nM and 13100 nM, respectively.
